IC50 and Ki data for 15 compounds are collected here from patent US20100087432A1, “PYRROLE DERIVATIVES HAVING CRTH2 RECEPTOR ANTAGONIST ACTIVITY” (priority 2004, published 2010).

For test [1], the target named is T1, human CRTh2 (Homo sapiens, UniProt Q9Y5Y4).
T1 sequence (Q9Y5Y4 1-395): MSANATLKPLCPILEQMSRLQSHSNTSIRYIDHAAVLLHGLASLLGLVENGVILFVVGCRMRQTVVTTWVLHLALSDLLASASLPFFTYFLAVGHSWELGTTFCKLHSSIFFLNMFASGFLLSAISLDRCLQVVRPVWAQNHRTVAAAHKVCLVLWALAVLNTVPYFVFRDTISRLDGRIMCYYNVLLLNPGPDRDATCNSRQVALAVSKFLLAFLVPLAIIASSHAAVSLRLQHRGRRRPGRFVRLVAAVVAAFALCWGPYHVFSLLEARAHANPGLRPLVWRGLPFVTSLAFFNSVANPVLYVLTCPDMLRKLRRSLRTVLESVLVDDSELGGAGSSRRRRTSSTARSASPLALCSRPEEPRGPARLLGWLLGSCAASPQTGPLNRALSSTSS
The test is described as follows: CRTH2 cAMP functional assay in CHO.K1-CRTh2 cells. Format: cell-based. To be noted: inhibition of PGD2-mediated attenuation of forskolin-induced cAMP accumulation in CHO.K1-CRTh2 cells. As to the method: (§1) where S is the concentration of radioligand and Kd is the dissociation constant. CRTH2 cAMP Functional Assay Protocol
This assay is conducted in CHO.K1-CRTh2 cells. cAMP is generated in the cell by stimulating cells with 5 μM forskolin, an adenylate cyclase activator. PGD2 is added to activate the CRTh2 receptor which results in the attenuation of the forskolin-induced cAMP accumulation. Potential CRTh2 antagonists are tested for their ability to inhibit the PGD2− mediated attenuation of the forskolin-induced cAMP accumulation in CHO.K1-CRTh2 cells.
For each concentration value on the dose-response curve, test compounds are prepared in assay stimulation buffer (HBSS, 5 mM HEPES, 10 μM IBMX ±0.1% human serum albumin) containing DMSO (3% vol/vol) and 5 μL/well is added to an assay plate (384 well white optiplate).
CHO.K1-CRTh2 cultured in tissue culture flasks are washed with PBS and harvested with dissociation buffer. Cells are washed with PBS and re-suspended in stimulation buffer to a concentration of 0.4×10^6/mL and added to the assay plate (10 μL/well).
The assay plate is incubated at room temperature on a shaker for 15 minutes.
A mix of agonist (10 nM Prostaglandin D2) and 5 μM forskolin is prepared in assay stimulation buffer and added to the assay plate (5 μL/well).
In addition, a cAMP standard is serially diluted in assay stimulation buffer and added to separate empty wells on the assay plate (20 μL/well). The cAMP standard allows for the quantification of cAMP generated in CHO.K1-CRTH2 cells.
The assay plate is incubated at room temperature on a shaker for 60 minutes.
Cell lysis buffer (Lysis buffer: Milli-Q H2O, 5 mM HEPES, 0.3% Tween-20, 0.1% human serum albumin) is added to a bead mix (containing Alphascreen™ anti-cAMP acceptor beads 0.06 units/μL, Alphascreen™ streptavidin-coated donor beads 0.06 units/μL, biotinylated cAMP 0.06 units/μL, 10 μM IBMX) is prepared under darkened conditions 60 minutes prior to addition to the assay plate. The resulting lysis mix is added to all wells of the assay plate (40 μL/well).
The assay plate is sealed with Topseal-S™ and incubated in the dark at room temperature on a shaker for 45 minutes. The plate is then counted using a Packard Fusion™ instrument.
The resulting counts per minute are converted to nM cAMP by using the prepared cAMP standard curve. IC50 values (concentration of CRTh2 antagonist required to inhibit 50% of the PGD2-mediated attenuation of forskolin-induced cAMP accumulation in CHO.K1-CRTh2 cells) are then determined using Prism™ software.
Background: Changes in cAMP serve as a functional read-out for many G protein-coupled receptors.

Test [2] addresses T1, human CRTh2. The test is described as follows: Filtration binding assay ([3H]-PGD2 competition on CHO.K1-CRTh2 membranes). To be noted: [3H]-PGD2 2.5 nM, Cheng-Prussoff. As for the experimental part:
The binding of CRTh2 antagonists is determined using membranes prepared from human CRTh2-expressing Chinese Hamster Ovary cells (CHO.K1-CRTh2). To produce cell membranes CHO.K1-CRTh2 cells cultured in roller bottles are harvested using cell dissociation buffer (Invitrogen). The cells are pelleted by centrifugation (167 g, 5 min). The cell pellet is incubated in hypotonic buffer (15 mM Tris-OH, 2 mM MgCl2, 0.3 mM EDTA, 1 mM EGTA, 1×Complete™ tablet) at 4° C. for 30 minutes. At 4° C. cells are homogenized using a Polytron® (IKA Ultra Turrax T25) for 5 bursts of 1 second. The homogenate is centrifuged (Beckman Optima TM TL Ultracentrifuge, 48000 g, 30 minutes at 4° C.). The supernatant is discarded and the membrane pellet re-suspended in homogenisation buffer (75 mM Tris-OH, 12.5 mM MgCl2, 0.3 mM EDTA, 1 mM EGTA, 250 mM Sucrose, 1×Complete™ tablet. Membrane preparations are aliquoted and stored at […]. The protein content is estimated using Bradford Protein Assay Dye (Bio Rad).
The binding of [^3H]-PGD2 (157 Ci/mmol) to CHO.K1-CRTh2 membranes is determined in the absence (total binding) and presence (non-specific binding) of unlabelled PGD2 (1 μM). Subtraction of the cpm (counts per minute) of [^3H]-PGD2 binding in presence of excess unlabelled PGD2 from that observed in the absence of excess unlabelled PGD2 is defined as specific binding. Active CRTh2 antagonists are able to compete with [^3H]-PGD2 for binding to the CRTh2 receptor and are identified in a decrease in the number of cpm bound.
The assay is performed in Greiner U-bottomed 96 well-plates, in a final volume of 100 μL per well. CHO.K1-CRTh2 membranes were diluted in assay buffer (10 mM HEPES-KOH (pH 7.4), 1 mM EDTA and 10 mM MnCl2) and 10 μg are added to each well [^3H]-PGD2 is diluted in assay buffer and added to each well at a final concentration of 2.5 nM. To determine non-specific binding, [^3H]-PGD2 binding to the CRTh2 receptor is competed with using unlabelled PGD2 at a final well concentration of 1 μM. The experiment is done in triplicate, with reagents added to the wells as follows: • 25 μL assay buffer for total binding or • 25 μL PGD2 to determine non-specific binding • 25 μL [^3H]PGD2 • […] • 25 μL test compound in DMSO/assay buffer
The plates are incubated at room temperature on a shaker for 1 hour, and then harvested (Tomtec Harvester 9600) onto GF/C filter plates using wash buffer (10 mM HEPES-KOH, pH 7.4). The plate is dried for 2 hours, prior to addition of Micro-Scint 20™ (50 μL) and sealing with TopSeal-S™. Plates are then counted using a Packard Top Count instrument, Plates are then read on the Packard Topcount with the 3H Scintillation program (1 min./well).
Ki (dissocation constant for the inhibition) values for the CRTh2 antagonists are reported. Ki values are determined using Sigma Plot™ software, using the Cheng-Prussoff equation.
as §1

pIC50, pKi: −log10 of the molar value.

One may read the pIC50 as the negative decadic logarithm of the IC50, by convention in mol/L. Higher therefore signals a small IC50. The term pKi denotes −log10 of the Ki, conventionally taken in molar units. Read a high pKi as a small Ki. Compound `CCCCNS(=O)(=O)c1cc(-c2cn(CC(=O)O)cc2C#N)cc(C(F)(F)F)c1` [Example 45, [3-(3-butylsulfamoyl-5-trifluoromethyl-phenyl)-4-cyano-pyrrol-1-yl]-acetic acid] showed a pIC50 in test [1] of 7.80. In test [2], this compound had a pKi of 8.22.
The compound `N#Cc1cn(CC(=O)O)cc1-c1cc(C(F)(F)F)cc(C(F)(F)F)c1` [Example 1, [3-(3,5-Bis-Trifluoromethyl-Phenyl)-4-Cyano-Pyrrol-1-yl]-Acetic Acid] had a pIC50 in test [1] of 7.55. In addition, the pKi in test [2] was 8.00.
Consider `N#Cc1cn(CC(=O)O)cc1-c1cc(Cl)cc(Cl)c1` [Example 2, [3-Cyano-4-(3,5-Dichloro-Phenyl)-Pyrrol-1-yl]-Acetic Acid], for which the pIC50 in test [1] was 7.24. The pKi in test [2] is 7.47.
In the case of `N#Cc1cn(CC(=O)O)cc1-c1cccc2c1OC(F)(F)O2` [Example 3], the pIC50 in test [1] is 6.07. Besides, in test [2], the pKi is 6.61.
Take `N#Cc1cn(CC(=O)O)cc1-c1cc(C(F)(F)F)ccc1C(F)(F)F` [Example 21, [3-(2,5-Bis-trifluoromethyl-phenyl)-4-cyano-pyrrol-1-yl]-acetic acid]: the pIC50 in test [1] is 6.83. Moreover, in test [2], the pKi was 7.02.
Turning to `N#Cc1cn(CC(=O)O)cc1-c1cc(Cl)cc(S(=O)(=O)N2CCCCC2)c1` [Example 53, {3-[3-Chloro-5-(Piperidine-1-Sulfonyl)-Phenyl]-4-Cyano-Pyrrol-1-yl}-Acetic Acid], the pIC50 in test [1] was 7.34. Further, in test [2], the pKi is 8.70.
In turn, `N#Cc1cn(CC(=O)O)cc1-c1cccc(C(F)(F)F)c1` [Example 12, [3-Cyano-4-(3-trifluoromethyl-phenyl)-pyrrol-1-yl]-acetic acid] had a pIC50 in test [1] of 7.16. The same compound showed a pKi in test [2] of 6.76.
For `N#Cc1cn(CC(=O)O)cc1-c1cc(C(F)(F)F)ccc1Cl` [Example 17, [3-(2-Chloro-5-trifluoromethyl-phenyl)-4-cyano-pyrrol-1-yl]-acetic acid], in that order: 6.79 and 7.05.
`N#Cc1cn(CC(=O)O)cc1-c1cc(C(F)(F)F)cc(S(=O)(=O)NC2CCC2)c1` [Example 50, [3-cyano-4-(3-cyclobutylsulfamoyl-5-trifluoromethyl-phenyl)-pyrrol-1-yl]-acetic acid] gave a pIC50 in test [1] of 8.05. Besides, the pKi in test [2] is 8.40.
In test [1], `N#Cc1cn(CC(=O)O)cc1-c1cc(C(F)(F)F)cc(S(=O)(=O)N2CCCC2)c1` [Example 42, {3-cyano-4-[3-(pyrrolidine-1-sulfonyl)-5-trifluoromethyl-phenyl]-pyrrol-1-yl}-acetic acid] showed a pIC50 of 7.77. In test [2], this compound showed a pKi of 8.22.
As for `N#Cc1cn(CC(=O)O)cc1-c1cc(C(F)(F)F)cc(S(=O)(=O)N2CCCCC2)c1` [Example 40, {3-Cyano-4-[3-(Piperidine-1-Sulfonyl)-5-Trifluoromethyl-Phenyl]Pyrrol-1-yl}-Acetic Acid], the pIC50 in test [1] is 7.92. The pKi in test [2] was 8.70.
`N#Cc1cn(CC(=O)O)cc1-c1cccc(Cl)c1` [Example 8, [3-(3-Chloro-phenyl)-4-cyano-pyrrol-1-yl]-acetic acid] gave a pIC50 in test [1] of 6.59. In test [2], this compound gave a pKi of 6.79.
On the same counts, the results for `CN(C)S(=O)(=O)c1cc(-c2cn(CC(=O)O)cc2C#N)cc(C(F)(F)F)c1` [Example 64, [3-Cyano-4-(3-Dimethylsulfamoyl-5-Trifluoromethyl-Phenyl)-Pyrrol-1-yl]-Acetic Acid] are 7.85 and 7.38.
On the same counts, the results for `N#Cc1cn(CC(=O)O)cc1-c1cc(C(F)(F)F)cc(Cl)c1F` [Example 25, [3-(3-Chloro-2-fluoro-5-trifluoromethyl-phenyl) -4-cyano-pyrrol-1-yl]-acetic acid] are 7.60 and 7.40.
`N#Cc1cn(CC(=O)O)cc1-c1cc(Cl)ccc1Cl` [Example 15, [3-Cyano-4-(2,5-dichloro-phenyl)-pyrrol-1-yl]-acetic acid] had a pIC50 in test [1] of 6.55. Besides, the pKi in test [2] is 6.84.
